{
  "source": "patent US8946187B2",
  "about": "“Materials and methods related to microRNA-21, mismatch repair, and colorectal cancer” (The Ohio State University, priority 2010, dated 2015)",
  "system": "Lovo tumor xenografts",
  "assay": "Colorectal cancer xenograft model, 5-FU treatment",
  "type": "in vivo, nude mice",
  "conditions": "5-FU 50 mg/kg/day i.p., 5 days per week for 2 weeks; Lovo(MSH2+) vs Lovo(MSH2−)",
  "excerpt": "Lovo-MSH2 positive and Lovo-MSH2 negative cells were stably infected with the pCDH-CMV-MCS-EF1-miRNA expression plasmid containing the full-length miR-21 and the GFP gene under the control of two different promoters (System Biosciences, Mountain View, Calif.). An empty vector was used as control. Pre-miR-21 expression and control constructs were packaged with pPACKH1 Lentivector Packaging Plasmid mix (System Biosciences) in 293-TN packaging cell line. Viruses were concentrated using PEG-It™ Virus Precipitation Solution and titers analyzed using UltraRapid Lentiviral Titer Kit (System Biosciences). Infected cells were selected by FACS analysis (FACS Calibur, Becton Dickinson Immunocytometry Systems). Infection efficiency >90% was verified by fluorescent microscopy and further confirmed by real time PCR for miR-21 expression.\nAnimal studies were performed according to institutional guidelines. […] Tumor volume was measured at the beginning of treatment and then once a week. The estimated tumor volume (V) was calculated by the following formula: V=W2×L×0.5, where W represents the […] tumor diameter. The individual relative tumor volume (RTV) was calculated as follows RTV=Vx/V1 where Vx is the volume in cubic millimeters at a given time and V1 is the volume at the start of treatment. […]",
  "data": [
    {"smiles": "O=c1[nH]cc(F)c(=O)[nH]1", "note": "[5-FU, 5-fluorouracil]", "values": [
      {"measurement": "efficacy of 5-FU treatment on tumor xenografts", "value": "more efficacious with Lovo(MSH2+) tumor xenografts compared to Lovo(MSH2−) tumor xenografts"}
    ]}
  ]
}
